{"source": "patent US20230141777A1", "about": "“COMPOSITION WHICH IS FOR TREATING OR PREVENTING RENAL CELL CANCER AND CONTAINS D-ALLOSE AS ACTIVE INGREDIENT, AND METHOD FOR TREATING OR PREVENTING CANCER USING SAME” (NATIONAL UNIVERSITY CORPORATION KAGAWA UNIVERSITY, priority 2020, published 2023)", "key": {"[1]": {"test": "Change in tumor D-allose concentration after intraperitoneal or oral administration of D-allose to renal cell carcinoma xenotransplantation mouse model (HPLC)", "assay_type": "in vivo", "settings": "for D-allose detected in tumor: by 1 hour after oral administration", "description": "(§1) The experiment was conducted using two different human renal cell carcinoma cell lines (Caki-1, ACHN). Each of the cells was cultured in a moist environment at 37° C., 5% CO2 using 10% fetal bovine serum and RPMI-1640 culture solution (2000 mg D-glucose/L) containing HEPES buffer and penicillin-streptomycin. The renal cell carcinoma xenotransplantation mouse model was prepared by adjusting cultured cells to a 1.0×10^5 cell/mL cell suspension with MEM culture solution, injecting 0.1 mL into the femoral subcutaneous tissue of Female athymic nude mice (BALB/c nu/nu, 6 weeks old), and confirming a tumor volume of 200 mm^3 or greater after 1 week, and it was used for the following experiment.\nIn a xenotransplantation mouse model of two different human renal cell carcinoma cell lines (Caki-1, ACHN), tumors were enucleated from the mice at the 1st hour, 2nd hour and 4th hour before and after administration of D-allose by intraperitoneal administration (FIGS. 1(A) and (B)) or oral administration (FIGS. 1(C) and (D)) of a solution of rare sugar D-allose prepared using physiological saline to 400 mg/kg/0.2 mL. The monosaccharides in the supernatant obtained by ultrasonic disruption of the tumors in 1 mL of PBS and centrifugal separation at 3000 rpm for 5 minutes were labeled with ABEE (4-aminobenzoic acid ethyl ester) and the D-allose was quantitatively analyzed by HPLC (high performance liquid chromatography) (FIG. 1)."}, "[2]": {"system": "human renal cell carcinoma cell line Caki-1 xenotransplantation mouse model", "test": "Change in tumor volume and tumor histology in renal cell carcinoma xenotransplantation mouse model by oral administration of D-allose", "assay_type": "in vivo", "settings": "Caki-1 xenograft", "description": "as §1\n(§2) A D-allose-containing solution was orally administered from day 1, where “day 0” was defined as the day when the tumor size of the renal cell carcinoma xenotransplantation mouse model prepared using Caki-1 as the human renal cell carcinoma cell line reached 200 mm^3 or greater.\n(§3) Either 0.2 mL physiological saline or 0.2 mL physiological saline dissolving 400 mg/kg D-allose was injected into the esophagus of mice divided into 2 groups (control group and D-allose group), through a Neraton catheter. The administration was carried out once a day for a total of 32 consecutive days. The mouse body weights and the long and short diameters of the tumors were measured twice a week. The tumor volumes were calculated as: tumor long diameter×short diameter×short diameter×0.5. The livers and kidneys were extracted with the tumors from the mice on the 32nd day after the start of oral administration and used for the subsequent experiment.\n(§4) The tumors, kidneys and livers were extracted from the renal cell carcinoma xenotransplantation mouse models (control group and D-allose-administered group, 32nd day after start of administration), and the tissues were fixed with 4% paraformaldehyde/phosphate buffer, embedded in paraffin and sliced to thicknesses of 4 μm. The thin slices were stained with hematoxylin-eosin staining (HE staining) and observed (FIG. 3, FIG. 5 and FIG. 6)."}, "[3]": {"system": "human renal cell carcinoma cell line ACHN", "test": "Intracellular reactive oxygen species (ROS) production, DCF-DA fluorescence, ACHN", "assay_type": "cell-based", "settings": "50 mM D-allose, co-culture 1 hour, vs DMSO", "description": "(§5) After seeding human renal cell carcinoma cell line (Caki-1 or ACHN) at 5.0×10^5 in a 100 mm dish, culturing for 24 hours and then co-culturing with DMSO or D-allose (50 mM) for 1 hour, 10 μM 2,7-Dichlorofluorescin diacetate (DCF-DA; D6883, Sigma-Aldrich, USA) was added and the mixture was allowed to stand at 37° C. for 30 minutes. The cells were recovered with trypsin treatment and collected by centrifugal separation for 5 minutes at 3500×g, after which they were resuspended in ice-cold PBS and a CytoFLEX S (Beckman Coulter, CA, USA) was used to detect the DCF-DA fluorescence. Each experiment was conducted 3 times, and the data were analyzed using CytExpert software and recorded as the average value±SE (FIG. 8)."}, "[4]": {"system": "human colorectal cancer cell line (DLD-1) xenotransplantation mice", "test": "Change in tumor volume in colorectal cancer xenotransplantation mouse model by administration of D-allose", "assay_type": "in vivo", "settings": "DLD-1 xenograft, Mann-Whitney U test", "description": "A cell suspension containing 2.0×10^6 cells of a human colorectal cancer cell line (DLD-1) was injected into femoral subcutaneous tissue of Male athymic nude mice (BALB/c Nude (nu/nu)mice), and adjustment of D-allose or D-glucose was initiated with “day 0” defined as the day when the tumor volume reached about 100 to 150 mm^3.\nD-allose or D-glucose was intraperitoneally administered at 400 mg/kg to colorectal cancer xenotransplantation mice whose tumor volumes had reached about 100 mm^3. Physiological saline was used as the solvent for adjustment to 0.2 ml, and administration was once per day for a total of 30 days. The tumor volumes were measured every 6 days.\nD-allose or D-glucose was orally administered at 100 mg/kg to colorectal cancer xenotransplantation mice whose tumor volumes had reached about 100 to 150 mm^3. Distilled water was used as the solvent for adjustment to 0.2 ml, and administration was once per day for a total of 30 days. The tumor volumes were measured every 6 days."}, "[5]": {"test": "Body weight and HE staining of kidney and liver tissue in renal cell carcinoma xenotransplantation mouse model after oral D-allose", "assay_type": "in vivo", "description": "as §2, §3, §4"}, "TXNIP [6]": {"system": "TXNIP", "test": "TXNIP expression (Western blotting) in Caki-1", "assay_type": "cell-based, human", "settings": "Caki-1, 10, 25 or 50 mM D-allose, 48 hours", "description": "(§6) A human renal cell carcinoma cell line (Caki-1 or Caki-2) was seeded at 5.0×10^5 in a 100 mm dish and cultured for 24 hours, after which it was co-cultured with D-allose (10, 25 or 50 mM). After 48 hours, the cells were recovered and the protein was extracted, and the concentration of each protein was measured using a Bio-Rad Protein Assay Kit (Bio-Rad, Laboratories, Inc. USA). A protein sample ([…]) was electrophoresed on 10% Mini-PROTAN TGX Precast Gel (Bio-Rad) and a Trans-Blot Turbo transfer system (Bio-Rad) was used for transfer onto a PVDF Western Blotting Membrane. After blocking treatment for 1 hour (Superblock T20. Thermo, Rockford. Ill., USA), anti-TXNIP antibody (D5F3E, CST. USA. 1:1000) was used as primary antibody for reaction using an iBind Flex Western System (Thermo). The loading control used was β-actin (ab8227, abcam, CamBridge, UK, 1:1000)."}, "TXNIP [7]": {"system": "TXNIP", "test": "TXNIP expression (Western blotting) in Caki-2", "assay_type": "cell-based, human", "settings": "Caki-2, 10, 25 or 50 mM D-allose, 48 hours", "description": "as §6"}, "[8]": {"system": "human renal cell carcinoma cell line Caki-1", "test": "Intracellular reactive oxygen species (ROS) production, DCF-DA fluorescence, Caki-1", "assay_type": "cell-based", "settings": "Caki-1, 50 mM D-allose, co-culture 1 hour, vs DMSO", "description": "as §5"}}, "note": "“Also recorded” adds a separate entry of the source.", "data": [{"compound": "O=C[C@H](O)[C@H](O)[C@H](O)[C@H](O)CO", "note": "[D-allose]", "values": [{"measurement": "tumor D-allose concentration with oral administration relative to intraperitoneal administration", "setting": "[1]; 400 mg/kg, Caki-1 and ACHN tumors (not distinguished)", "value": "about 80%"}, {"measurement": "D-allose detected in tumor", "setting": "[1]; ACHN tumors, 400 mg/kg", "value": "detected in all of the tumors"}, {"measurement": "D-allose detected in tumor", "setting": "[1]; Caki-1 tumors, 400 mg/kg", "value": "detected in all of the tumors"}, {"measurement": "time of maximum intratumoral D-allose concentration", "setting": "[1]; Caki-1 tumors, oral administration, 400 mg/kg", "value": 1, "unit": "h"}, {"measurement": "uptake into renal cell carcinoma compared to non-transintestinal (intraperitoneal) administration", "setting": "[1]; transintestinal administration, summary statement", "value": "equivalent rate or with approximately about 20% reduction"}, {"measurement": "tumor volume at the 32nd day compared to tumor volume before D-allose administration", "setting": "[2]; oral 400 mg/kg once a day for 32 days", "value": "significantly reduced"}, {"measurement": "tumor volume compared to the control group", "setting": "[2]; oral 400 mg/kg once a day, after the 8th day, Mann-Whitney U test", "value": "significantly reduced"}, {"measurement": "nuclear fission in HE stained tumor tissue", "setting": "[2]; oral 400 mg/kg/day, 32nd day, evaluation by a pathology specialist", "value": "reduced nuclear fission"}, {"measurement": "intracellular ROS", "setting": "[3]", "value": "significantly increased"}, {"measurement": "tumor volume compared to the D-glucose group", "setting": "[4]; intraperitoneal 400 mg/kg once per day for 30 days, after the 18th day", "value": "significantly smaller"}, {"measurement": "tumor volume compared to the D-glucose group", "setting": "[4]; oral 100 mg/kg once per day for 30 days, 100 mg/kg", "value": "no significant difference; also recorded: has not exhibited the anticancer effect"}, {"measurement": "body weight compared to the control group", "setting": "[5]; oral 400 mg/kg once a day, 32-day observation period", "value": "no significant difference"}, {"measurement": "HE staining images of kidney tissue compared to the control group", "setting": "[5]; oral 400 mg/kg/day, 32nd day", "value": "No particular difference"}, {"measurement": "HE staining images of liver tissue compared to the control group", "setting": "[5]; oral 400 mg/kg/day, 32nd day", "value": "No particular difference"}, {"measurement": "TXNIP expression", "setting": "TXNIP [6]", "value": "increases TXNIP expression in a D-allose dose-dependent manner"}, {"measurement": "TXNIP expression", "setting": "TXNIP [7]", "value": "increases TXNIP expression in a D-allose dose-dependent manner"}, {"measurement": "intracellular ROS", "setting": "[8]", "value": "significantly increased"}]}]}
